Test results taken from patent US12285408B2, “Methods and compositions for the treatment of snake bite” (priority 2021, dated 2025).

Assays:
[1] = test system: D. russelii venom coagulation-related activities; assay: Plasma clotting assay, whole D. russelii venom; type: biochemical, Daboia russelii; conditions: 150 μM to 150 nM
Procedure: FIG. 12. […] The data is plotted separately for ‘very fast coagulation’, ‘medium coagulation’ and ‘anticoagulation’, based on the slopes of the 0-5 min and 0-20 min readings, and the single endpoint reading at 180 min. The tested inhibitor concentrations are presented alongside the chromatograms. […] The data is presented as the maximal clotting velocity at each concentration, and represents means of triplicate independent repeats with SEMs, where each technical repeat represents the mean of n≥2 technical replicates. The venom-only control (top dashed lines) and the negative control (bottom dashed lines) are presented as intervals and represent the average±SEM observed for the venom-only and PBS controls across all datasets and replicates.
We used a previously developed plasma clotting assay^35 to measure venom-induced coagulation. Briefly, 100 ng of each venom was incubated at 37° C. for 30 min in the presence or absence of inhibitors (150 μM to 150 nM final concentrations). […] The samples were pipetted in triplicate into 384-well plates, and absorbance monitored at 595 nm for 2 h at 25° C. on an Omega FLUOstar instrument. We calculated the maximum clotting velocity of each of the curves as per clot waveform analysis^67, by calculating the maximum of the first derivative. […]

[2] = test system: SVMP activity of E. ocellatus, E. carinatus, B. asper and B. arietans venoms; assay: In vitro kinetic fluorogenic SVMP assay (Study 2); type: biochemical
Description: FIG. 10. […] (A) SVMP activities of the five viper venoms quantified by fluorogenic assay. The data presented represent mean measurements and SEMs of area under the curves of fluorescent arbitrary units taken from three independent experimental runs. EOC, E. ocellatus; ECAR, E. carinatus; BAS, Bothrops asper, BAR, Bitis arietans; DRUS, Daboia russelii. (B) The effectiveness of metal chelators and peptidomimetic hydroxamate inhibitors at inhibiting the SVMP activity of the various viper venoms. Drug concentrations from 150 μM to 150 nM (highest to lowest dose tested) are presented. The data is expressed as percentage of the venom-only sample (100%, top dashed line). The negative control is presented as an interval (bottom dashed lines) and represents the values recorded in the PBS-only samples (expressed as percentage of venom activity), where the highest and the lowest values in each set of independent experiments are depicted. […] All data represent triplicate independent repeats with SEMs, where each technical repeat represents the mean of n≥2 technical replicates.
We used an in vitro kinetic fluorogenic assay^28 to assess the SVMP bioactivity of each venom and its inhibition by varying concentrations of the four SVMP-inhibitors.
The SVMP assay measuring metalloproteinase activity and the plasma assay measuring coagulation in the presence or absence of venoms and inhibitors were performed as previously described^28. The SVMP assay kinetically measured cleavage of a quenched fluorogenic substrate (ES010, R&D Biosystems) by venom in the presence or absence of inhibitors.
Briefly, 10 μl of the substrate (supplied as a 6.2 mM stock) was used per 5 ml reaction buffer (150 mM NaCl, 50 mM Tris-CI pH 7.5). Reactions consisted of 10 μl of venom±inhibitors in PBS and 90 μl of substrate. Venoms were used at 1 μg/reaction and final inhibitor concentrations ranged from 150 μM to 150 nM. Samples were preincubated for 30 min at 37° C. and pipetted in triplicate into 384-well plates (Greiner). Thereafter, data was collected on an Omega FLUOstar (BMG Labtech) instrument at an excitation wavelength of 320 nm and emission wavelength of 405 nm at 25° C. for 1 h. The areas under the curve (AUCs) in the 0-40 min interval were calculated for each sample using MARS data analysis software v3.31 (BMG Labtech); this time point was chosen as the time where all fluorescence curves had reached a plateau (maximum fluorescence). For comparing venom-only samples, the means of at least three independent experimental runs for each condition, expressed as AUCs (n≥3), were plotted at each inhibitor concentration with standard error of the mean (SEM). To determine inhibitor efficacy, the AUCs for each of the samples that consisted of venom+inhibitors were transformed and expressed as percentages of the venom-only sample (where the venom was 100%). The negative control (PBS only) was also expressed relative to the venom, and the variation in background was presented as an interval delineated by the lowest and highest values in the PBS-only samples across concentrations and inhibitors for a specific venom. […] However, only the latter two concentrations were sufficiently depleted of DMSO for viable use in the assay.

Row | Compound | effect on procoagulant activity of whole D. russelii venom [1] | neutralization of SVMP bioactivity ([2]; marimastat 150 nM-150 μM, batimastat […] and 150 nM only) | lowest concentration effective / required to fully inhibit SVMP activities ([2]; concentrations tested 150 μM to 150 nM) [µM] | IC50 ([2]; range across venoms, 1 μg venom/reaction, read-out: IC50s, inhibition of SVMP activity) [nM]
1 | CNC(=O)[C@@H](NC(=O)[C@H](CC(C)C)[C@H](O)C(=O)NO)C(C)(C)C [marimastat] | revealed clear venom anticoagulant effects | complete in vitro neutralization | – | –
2 | O=S(=O)(O)CC(S)CS (centres unmarked) [DMPS, 2,3-dimercapto-1-propanesulfonic acid] | ineffective | – | 15 | 290 to 4190
